The compounds below were run against T1, acetylcholine muscarinic M1 receptor (Homo sapiens, UniProt P11229) (assay: muscarinic FLIPR assay: potentiation of acetylcholine (EC20)-stimulated intracellular Ca2+ in CHOnfat/hM1 cells). Conditions: 4 min preincubation, then EC20 acetylcholine (3 nM final), read-out: IP Value (inflection point).
T1 construct: expressed in transfected cells; host or cells: CHOnfat (CHO cells; also called CHOK1/hM1)
T1 sequence (P11229 1-460): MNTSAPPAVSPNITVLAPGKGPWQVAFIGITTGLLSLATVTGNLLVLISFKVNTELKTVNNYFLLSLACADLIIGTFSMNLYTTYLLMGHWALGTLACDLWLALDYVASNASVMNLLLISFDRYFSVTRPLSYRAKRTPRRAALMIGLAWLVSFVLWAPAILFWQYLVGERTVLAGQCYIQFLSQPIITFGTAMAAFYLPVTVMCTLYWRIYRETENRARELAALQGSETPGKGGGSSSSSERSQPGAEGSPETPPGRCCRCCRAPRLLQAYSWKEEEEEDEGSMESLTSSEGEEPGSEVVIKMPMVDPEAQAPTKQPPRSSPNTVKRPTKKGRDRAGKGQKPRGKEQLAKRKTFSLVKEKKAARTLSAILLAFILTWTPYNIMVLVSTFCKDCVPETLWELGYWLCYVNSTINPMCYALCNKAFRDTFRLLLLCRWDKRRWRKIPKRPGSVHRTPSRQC
Format: cell-based
Procedure: The assay studies the effect of one or several concentrations of test compounds on basal or acetylcholine-stimulated Ca^2+ levels using FLIPR.
Compounds are prepared and subjected to a preincubation period of 4 min. Thereafter, a single EC20 concentration of acetylcholine is added to each well (3 nM final). The intracellular Ca^2+ level of each sample is measured and compared to an acetylcholine control to determine any modulatory activity
Cells: CHOnfat/hM1, hM2, hM3 or hM4 cells are plated 24 hr before the assay at a density of 18,000 cells/well (100 μL) in a 384 well plate. CHOnfat/hM1 and CHOnfat/hM3 Growth Medium: 90% DMEM (Hi Glucose); 10% HI FBS; 2 mM L-glutamine; 0.1 mM NEAA; Pen-Strep; and 1 mg/ml Geneticin, are added. For M2Gqi5CHOnfat and M4Gqi5CHOnfat cells, an additional 600 ug/ml hygromycin is added.
Equipment: 384 well plate, 120 μL addition plate; 96-well Whatman 2 ml Uniplate Incubator, 37° C., 5% CO2; Skatron EMBLA-384 Plate Washer; Multimek Pipetting System; Genesis Freedom 200 System; Mosquito System; Temo Nanolitre Pipetting System; and FLIPR^384 Fluorometric Imaging Plate Reader System are used.
Buffers. Assay Buffer: Hanks Balanced Salt Solution, with 20 mM Hepes, 2.5 mM Probenecid (Sigma P-8761) first dissolved in 1 N NaOH, 1% Bovine Serum Albumin (Sigma A-9647). Dye Loading Buffer: Assay Buffer plus 1% Fetal Bovine Serum and Fluo-4AM/Pluronic Acid Mixture. 2 mM Fluo-4AM ester stock in DMSO (Molecular Probes F-14202) Concentration of 2 μM in buffer for a final concentration of 1 μM in Assay. 20% Pluronic Acid Solution stock, with concentration of 0.04% in Buffer, 0.02% in Assay.
65 μL of 2 mM Fluo-4AM are mixed with 130 μL of 20% Pluronic Acid. The resulting solution and 650 μL FBS is added to the assay buffer for a total volume of 65 mL. Positive Controls; 4-Br-A23187: 10 mM in DMSO; final concentration 10 μM. Acetylcholine: 10 mM in water, working stock at both 20 μM and 30 μM in assay buffer, final concentration of 10 μM. This is used to check the maximum stimulation of the CHOK1/hM1 cells. 20 μM (2×) acetylcholine is added in the preincubation part of the assay, and the 30 μM (3×) stock is added in the second part. (EC20)Acetylcholine; 10 mM in water, working stock of 9 nM (3×), and final concentration in assay is 3 nM. This is used after the preincubation with test compounds. Addition of the EC20 Acetylcholine to each well with a test compound will ascertain any modulator activity. 24 wells contain 3 nM Acetylcholine alone as a control.
Screening Plate: Compounds are titrated in 96-well plates (columns 2-11), 100% DMSO, started at a concentration of 15 mM (150× stock concentration), and 3-fold serial dilutions using Genesis Freedom 200 System. Four 96-well plates are combined into a 384-well plate using Mosquito Nanolitre Pipetting System by transferring 1 μl of serial diluted compounds to each well, and 1 mM acetylcholine (100× stock concentration) were added as a control. Using Temo, 49 μl assay buffer is added to each well of the 384-well plate right before assay.
In a 96-well Whatman 2 ml Uniplate, 9 nM Acetylcholine (3×) is pipetted into wells corresponding to the screening compounds, and into control wells. The 30 μM acetylcholine control (3×) is added into control wells, and the 3× agonist plate is transferred into a 384 well plate.
Cells are washed three times with 100 μL of buffer, leaving 30 μL of buffer in each well. Using Multimek, 30 μL of Dye Loading Buffer is added into each well and incubated at 37° C., 5% CO2 for up to one hr.
After 60 min, the cells are washed three times with 100 μL of buffer, leaving 30 μL of buffer in each well. The cell plate, screening plate, and agonist addition plates are placed on the platform in the FLIPR and the door closed. A signal test to check background fluorescence and basal fluorescence signal is performed. Laser intensity is adjusted if necessary. […]

| Compound | EC50 [nM] |
| --- | --- |
| Cc1ccc(-c2ccc(Cn3nc4c(=O)n([C@@H]5CCCC[C@H]5O)nc-4c4cccnc43)cn2)cn1 (racemic) [Example 8, (±)-2-(trans-2-Hydroxycyclohexyl)-5-[(6′-methyl-2,3′-bipyridin-5-yl)methyl]-2,5-dihydro-3H-pyrazolo[4,3-c]pyrido[3,2-e]pyridazin-3-one] | 140 |
| Cc1ccc(-c2ccc(Cn3nc4c(=O)n(C5CCCOC5)nc-4c4cccnc43)cn2)cn1 (racemic) [Example 9, (±)-5-[(6′-Methyl-2,3′-bipyridin-5-yl)methyl]-2-(tetrahydro-2H-pyran-3-yl)-2,5-dihydro-3H-pyrazolo[4,3-c]pyrido[3,2-e]pyridazin-3-one] | 1160 |
| O=c1c2nn(Cc3ccc(-n4cccn4)cc3)c3ncccc3c-2nn1C1CCCOC1 (racemic) [Example 10, (±)-5-{[4-(1H-Pyrazol-1-yl)phenyl]methyl}-2-(tetrahydro-2H-pyran-3-yl)-2,5-dihydro-3H-pyrazolo[4,3-c]pyrido[3,2-e]pyridazin-3-one] | 438 |
| Cc1ccc(-c2ccc(Cn3nc4c(=O)n(C5CCCOC5)nc-4c4cccnc43)cc2)cn1 (racemic) [Example 11, (±)-5-{[4-(6-Methylpyridin-3-yl)phenyl]methyl}-2-(tetrahydro-2H-pyran-3-yl)-2,5-dihydro-3H-pyrazolo[4,3-c]pyrido[3,2-e]pyridazin-3-one] | 370 |
| O=c1c2nn(Cc3ccc(-c4cscn4)cc3)c3ncccc3c-2nn1C1CCCOC1 (racemic) [Example 31, (±)-2-(Tetrahydro-2H-pyran-3-yl)-5-{[4-(1,3-thiazol-4-yl)phenyl]methyl}-2,5-dihydro-3H-pyrazolo[4,3-c]pyrido[3,2-e]pyridazin-3-one] | 295 |
| O=c1c2nn(Cc3ccc(-c4ccc(O)nc4)cc3)c3ncccc3c-2nn1C1CCCOC1 (racemic) [Example 32, (±)-5-{[4-(6-Hydroxypyridin-3-yl)phenyl]methyl}-2-(tetrahydro-2H-pyran-3-yl)-2,5-dihydro-3H-pyrazolo[4,3-c]pyrido[3,2-e]pyridazin-3-one] | 1690 |
| O=c1c2nn(Cc3ccc(-n4cccn4)cc3)c3ccsc3c-2nn1C1CCCOC1 (racemic) [Example 37, (±)-5-{[4-(1H-Pyrazol-1-yl)phenyl]methyl}-2-(tetrahydro-2H-pyran-3-yl)-2,5-dihydro-3H-pyrazolo[4,3-c]thieno[2,3-e]pyridazin-3-one] | 96 |
| Cc1ccc(-c2ccc(Cn3nc4c(=O)n(C5CCCOC5)nc-4c4sccc43)cc2)cn1 (racemic) [Example 38, (±)-5-{[4-(6-Methylpyridin-3-yl)phenyl]methyl}-2-(tetrahydro-2H-pyran-3-yl)-2,5-dihydro-3H-pyrazolo[4,3-c]thieno[2,3-e]pyridazin-3-one] | 183 |
| Cc1cc(-c2ccc(Cn3nc4c(=O)n(C5CCCOC5)nc-4c4sccc43)cc2)ccn1 (racemic) [Example 39, (±)-5-{[4-(2-Methylpyridin-4-yl)phenyl]methyl}-2-(tetrahydro-2H-pyran-3-yl)-2,5-dihydro-3H-pyrazolo[4,3-c]thieno[2,3-e]pyridazin-3-one] | 120 |
| Cc1cccc(-n2nc3c4cccnc4n(Cc4ccc(-c5cnn(C)c5)nc4)nc-3c2=O)c1C [Example 1, 2-(2,3-Dimethylphenyl)-5-{[6-(1-methyl-1H-pyrazol-4-yl)pyridin-3-yl]methyl}-2,5-dihydro-3H-pyrazolo[4,3-c]pyrido[3,2-e]pyridazin-3-one] | 58 |
| Cc1cccc(-n2nc3c4cccnc4n(Cc4ccc(Cl)nc4)nc-3c2=O)c1C [Example 4, 5-[(6-Chloropyridin-3-yl)methyl]-2-(2,3-dimethylphenyl)-2,5-dihydro-3H-pyrazolo[4,3-c]pyrido[3,2-e]pyridazin-3-one] | 366 |
| Cc1ccc(-c2ccc(Cn3nc4c(=O)n(-c5cccc(C)c5C)nc-4c4cccnc43)cn2)cn1 [Example 5, 2-(2,3-Dimethylphenyl)-5-[(6′-methyl-2,3′-bipyridin-5-yl)methyl]-2,5-dihydro-3H-pyrazolo[4,3-c]pyrido[3,2-e]pyridazin-3-one] | 109 |
| Cc1ccc(-c2ccc(Cn3nc4c(=O)n(-c5cccc(C)c5F)nc-4c4cccnc43)cn2)cn1 [Example 6, 2-(2-Fluoro-3-methylphenyl)-5-[(6′-methyl-2,3′-bipyridin-5-yl)methyl]-2,5-dihydro-3H-pyrazolo[4,3-c]pyrido[3,2-e]pyridazin-3-one] | 36 |
| Cc1cncc(-c2ccc(Cn3nc4c(=O)n(C5CCCOC5)nc-4c4cccnc43)cc2)c1 (stereo not shown) [Example 13] | 578 |
| Cc1ccccc1-n1nc2c3sccc3n(Cc3ccc(-n4cccn4)cc3)nc-2c1=O [Example 33, 2-(2-Methylphenyl)-5-{[4-(1H-pyrazol-1-yl)phenyl]methyl}-2,5-dihydro-3H-pyrazolo[4,3-c]thieno[2,3-e]pyridazin-3-one] | 48 |
| Cc1c(-n2nc3c4sccc4n(Cc4ccc(-n5cccn5)cc4)nc-3c2=O)ccnc1F [Example 34] | 33 |
